Data reported in patent publication US12570988B2, “Aptamers that bind thiamine analogs and derivatives” (MeiraGTx Gene Regulation Limited, priority 2020, dated 2026).

Key:
[1] = tested on: riboswitch 15D10; assay: Luciferase reporter with 15D10 riboswitch (Luci-15D10) in HEK 293 cells; format: cell-based, human; details: HEK 293 cells; for fold induction at 50 µM: Homo sapiens, HEK293, 24 h, read-out: Fold increase in riboswitch 15D10-regulated luciferase expression, HEK
How it was run: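 Cells transfected with riboswitch-luciferase plasmid; 4 h later medium replaced with TPP or thiamine analogs (fursultiamine, prosultiamine, bisbentiamine, beclotiamine, sulbutiamine) as inducers.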

[2] = tested on: riboswitch 15D10; assay: Luciferase reporter with 15D10 riboswitch (Luci-15D10) in AML12 cells; format: cell-based, mouse; details: for fold induction at 50 µM: Mus musculus, AML12, 24 h, AML12 cells, read-out: Fold increase in riboswitch 15D10-regulated luciferase expression, AML

| SMILES | fold induction at 50 µM ([1]; Table 2) | fold induction at 50 µM ([2]; Table 2) | fold induction at 50 µM ([1]; Table 3) | fold induction at 50 µM ([2]; Table 3) | other results |
| --- | --- | --- | --- | --- | --- |
| C/C(=C(\CCO)SC(=O)c1cccc2ccccc12)N(C=O)Cc1cnc(C)nc1N [Compound M34, (Z)—S-(2-(N-((4-Amino-2-methylpyrimidin-5-yl)methyl)formamido)-5-hydroxypent-2-en-3-yl) naphthalene-1-carbothioate] | 164 | 291 | – | – | effect on luciferase expression from Luci-15D10 ([1]; FIG. 9A, 9C): increased luciferase expression; relative potency in inducing luciferase expression ([1]; compared with fursultiamine or within Formula V/VI groups): most potent compound; relative potency in inducing luciferase expression ([2]; AML 12 cells, compared with fursultiamine or within groups): most potent inducer |
| C/C(=C(\CCO)SC(=O)c1c(C)cc(C(C)(C)C)cc1C)N(C=O)Cc1cnc(C)nc1N [Compound M67, (Z)—S-(2-(N-((4-amino-2-methylpyrimidin-5-yl)methyl)formamido)-5-hydroxypent-2-en-3-yl) 4-(tert-butyl)-2,6-dimethylbenzothioate] | 2.1 | 0.9 | – | – | – |
| C/C(=C(\CCO)SC(=O)c1ccc(Oc2cccc(Cl)c2)cc1C)N(C=O)Cc1cnc(C)nc1N [Compound M151, (Z)—S-(2-(N-((4-amino-2-methylpyrimidin-5-yl)methyl)formamido)-5-hydroxypent-2-en-3-yl) 4-(3-chlorophenoxy)-2-methylbenzothioate] | – | – | 20.5 | 231 | – |
| C/C(=C(\CCO)SCOC(=O)C(C)(C)Cc1ccc2ccccc2c1)N(C=O)Cc1cnc(C)nc1N [Compound M101, (Z)-((2-(N-((4-amino-2-methylpyrimidin-5-yl)methyl)formamido)-5-hydroxypent-2-en-3-yl)thio)methyl 2,2-dimethyl-3-(naphthalen-2-yl)propanoate] | 88.6 | 128 | – | – | – |
| C/C(=C(\CCO)SC(=O)c1cccc2cccc(F)c12)N(C=O)Cc1cnc(C)nc1N [Compound M45, (Z)—S-(2-(N-((4-amino-2-methylpyrimidin-5-yl)methyl)formamido)-5-hydroxypent-2-en-3-yl) 8-fluoronaphthalene-1-carbothioate] | 1.3 | 2.9 | – | – | – |
| CCOc1ccc2ccccc2c1C(=O)OCS/C(CCO)=C(/C)N(C=O)Cc1cnc(C)nc1N [Compound M100, (Z)-((2-(N-((4-amino-2-methylpyrimidin-5-yl)methyl)formamido)-5-hydroxypent-2-en-3-yl)thio)methyl 2-ethoxy-1-naphthoate] | 1.1 | 0.4 | – | – | – |
| C/C(=C(\CCO)SC(=O)c1cccc2c1oc1ccccc12)N(C=O)Cc1cnc(C)nc1N [Compound M148, (Z)—S-(2-(N-((4-amino-2-methylpyrimidin-5-yl)methyl)formamido)-5-hydroxypent-2-en-3-yl) dibenzo[b,d]furan-4-carbothioate] | – | – | 153 | 288 | – |
| C/C(=C(\CCO)SC(=O)c1c(F)cccc1Oc1ccccc1Br)N(C=O)Cc1cnc(C)nc1N [Compound M160, (Z)—S-(2-(N-((4-amino-2-methylpyrimidin-5-yl)methyl)formamido)-5-hydroxypent-2-en-3-yl) 2-(2-bromophenoxy)-6-fluorobenzothioate] | – | – | 79.5 | 131 | – |
| C/C(=C(\CCO)SCOC(=O)c1ccc2c(c1)C(C)(C)CCC2(C)C)N(C=O)Cc1cnc(C)nc1N [Compound M99, (Z)-((2-(N-((4-amino-2-methylpyrimidin-5-yl)methyl)formamido)-5-hydroxypent-2-en-3-yl)thio)methyl 5,5,8,8-tetramethyl-5,6,7,8-tetrahydronaphthalene-2-carboxylate] | 0.2 | 0.4 | – | – | – |
| COCCOc1ccc(C(=O)S/C(CCO)=C(/C)N(C=O)Cc2cnc(C)nc2N)cc1 [Compound M82, (Z)—S-(2-(N-((4-amino-2-methylpyrimidin-5-yl)methyl)formamido)-5-hydroxypent-2-en-3-yl) 4-(2-methoxyethoxy)benzothioate] | 89.2 | 73.9 | – | – | – |
| C/C(=C(\CCO)SC(=O)c1ccccc1Oc1cccc2ccccc12)N(C=O)Cc1cnc(C)nc1N [Compound M157, (Z)—S-(2-(N-((4-amino-2-methylpyrimidin-5-yl)methyl)formamido)-5-hydroxypent-2-en-3-yl) 2-(naphthalen-1-yloxy)benzothioate] | – | – | 118 | 316 | – |
| C/C(=C(\CCO)SC(=O)C12CC3CC(CC(C3)C1)C2)N(C=O)Cc1cnc(C)nc1N [Compound M53, S—((Z)-2-(N-((4-amino-2-methylpyrimidin-5-yl)methyl)formamido)-5-hydroxypent-2-en-3-yl) (3r,5r,7r)-adamantane-1-carbothioate] | 2.4 | 57 | – | – | – |
| C/C(=C(\CCO)SC(=O)c1ccccc1Oc1ccc2ccccc2c1)N(C=O)Cc1cnc(C)nc1N [Compound M140, (Z)—S-(2-(N-((4-amino-2-methylpyrimidin-5-yl)methyl)formamido)-5-hydroxypent-2-en-3-yl) 2-(naphthalen-2-yloxy)benzothioate] | – | – | 175 | 192 | – |
| C/C(=C(\CCO)SC(=O)C1(C)Cc2ccccc2C1)N(C=O)Cc1cnc(C)nc1N [Compound M62, (Z)—S-(2-(N-((4-amino-2-methylpyrimidin-5-yl)methyl)formamido)-5-hydroxypent-2-en-3-yl) 2-methyl-2,3-dihydro-1H-indene-2-carbothioate] | 49 | 110 | – | – | – |
| C/C(=C(\CCO)SC(=O)c1ccccc1Sc1ccccc1)N(C=O)Cc1cnc(C)nc1N [Compound M153, (Z)—S-(2-(N-((4-amino-2-methylpyrimidin-5-yl)methyl)formamido)-5-hydroxypent-2-en-3-yl) 2-(phenylthio)benzothioate] | – | – | 442 | 535 | – |
| CCOc1ccc2ccccc2c1C(=O)S/C(CCO)=C(/C)N(C=O)Cc1cnc(C)nc1N [Compound M38, (Z)—S-(2-(N-((4-amino-2-methylpyrimidin-5-yl)methyl)formamido)-5-hydroxypent-2-en-3-yl) 2-ethoxynaphthalene-1-carbothioate] | 1.2 | 1 | – | – | – |
| C/C(=C(\CCO)SC(=O)c1ccccc1Oc1ccccc1Br)N(C=O)Cc1cnc(C)nc1N [Compound M137, (Z)—S-(2-(N-((4-amino-2-methylpyrimidin-5-yl)methyl)formamido)-5-hydroxypent-2-en-3-yl) 2-(2-bromophenoxy)benzothioate] | – | – | 140 | 288 | – |
| C/C(=C(\CCO)SCOC(=O)c1cc2ccccc2c2ccccc12)N(C=O)Cc1cnc(C)nc1N [Compound M98, (Z)-((2-(N-((4-amino-2-methylpyrimidin-5-yl)methyl)formamido)-5-hydroxypent-2-en-3-yl)thio)methyl phenanthrene-9-carboxylate] | 13.6 | 57.7 | – | – | – |
| C/C(=C(\CCO)SC(=O)c1ccccc1Oc1ccc2c(c1)OCCO2)N(C=O)Cc1cnc(C)nc1N [Compound M147, (Z)—S-(2-(N-((4-amino-2-methylpyrimidin-5-yl)methyl)formamido)-5-hydroxypent-2-en-3-yl) 2-((2,3-dihydrobenzo[b][1,4]dioxin-6-yl)oxy)benzothioate] | – | – | 193 | 267 | – |
| C/C(=C(\CCO)SC(=O)c1c(Cl)cc(-c2ccccc2)cc1Cl)N(C=O)Cc1cnc(C)nc1N [Compound M66, (Z)—S-(2-(N-((4-amino-2-methylpyrimidin-5-yl)methyl)formamido)-5-hydroxypent-2-en-3-yl) 3,5-dichloro-[1,1′-biphenyl]-4-carbothioate] | 1.1 | 0.4 | – | – | – |
| C/C(=C(\CCO)SCOC(=O)C(c1ccccc1)(c1ccccc1)c1ccccc1)N(C=O)Cc1cnc(C)nc1N [Compound M105, (Z)-((2-(N-((4-amino-2-methylpyrimidin-5-yl)methyl)formamido)-5-hydroxypent-2-en-3-yl)thio)methyl 2,2,2-triphenylacetate] | 0.2 | 0.2 | – | – | – |
| CCOc1ccc(C(=O)S/C(CCO)=C(/C)N(C=O)Cc2cnc(C)nc2N)c(Oc2cccc(F)c2)c1 [Compound M143, (Z)—S-(2-(N-((4-amino-2-methylpyrimidin-5-yl)methyl)formamido)-5-hydroxypent-2-en-3-yl) 4-ethoxy-2-(3-fluorophenoxy)benzothioate] | – | – | 138 | 300 | – |
| C/C(=C(\CCO)SC(=O)c1ccc(Oc2ccccc2)cc1Oc1ccccc1)N(C=O)Cc1cnc(C)nc1N [Compound M152, (Z)—S-(2-(N-((4-amino-2-methylpyrimidin-5-yl)methyl)formamido)-5-hydroxypent-2-en-3-yl) 2,4-diphenoxybenzothioate] | – | – | 68.9 | 36.6 | – |
